Measurements published in patent US7498300B2, “CRFR1 selective ligands” (The Salk Institute for Biological Studies, priority 2001, dated 2009).

What was measured:
CRFR2 = CRFR2 (Mus musculus, UniProt Q60748); settings: Ruhmann et al., P.N.A.S. 95, 15264-15269 (1998); cited from earlier work
human CRFR1 = biological target: T1, human CRFR1 (Homo sapiens, UniProt P34998); test: Competitive binding assay, CHO cells stably expressing human CRFR1, displacement of 125I-(Nle21,Tyr32) ovine CRF
T1 construct: expressed in transfected cells
T1 sequence (P34998 24-415): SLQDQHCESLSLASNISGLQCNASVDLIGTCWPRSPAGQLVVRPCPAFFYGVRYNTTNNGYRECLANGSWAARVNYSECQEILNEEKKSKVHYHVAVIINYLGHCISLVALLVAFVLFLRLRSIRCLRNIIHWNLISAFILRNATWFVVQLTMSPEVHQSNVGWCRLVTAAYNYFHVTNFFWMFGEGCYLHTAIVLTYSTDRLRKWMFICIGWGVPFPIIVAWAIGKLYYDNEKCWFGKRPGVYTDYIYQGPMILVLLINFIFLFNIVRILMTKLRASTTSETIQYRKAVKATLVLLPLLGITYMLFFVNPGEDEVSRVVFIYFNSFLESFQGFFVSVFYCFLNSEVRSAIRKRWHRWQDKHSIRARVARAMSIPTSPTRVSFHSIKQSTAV
Method: Binding affinity is a term used to refer to the strength of interaction between ligand and receptor. […] Ki (inhibitory binding affinity constant) is determined using a “standard” or “tracer” radioactive ligand and thus measures the displacement of the tracer from the receptor or binding protein; it is most properly expressed with reference to such tracer. However, so long as these assays are carefully performed under specific conditions with relatively low concentrations of receptor or the like, the calculated Ki will be substantially the same as its dissociation constant KD. […] It is particularly efficient to test for Ki because only a single tracer need be labelled, e.g. radioiodinated.
Binding assays with cells expressing human CRFR1 are carried out as described in the Chen et al. P.N.A.S., supra. The affinities of test peptides for CRFR1 and CRFR2 stably expressed in CHO cells were determined by competitive displacement of ^125I-(Nle^21, Tyr^32) ovine CRF (for CRFR1) or of [^125I-Tyr^o-]Ucn (for CRFR2) as described.

[1] = test system: cultured rat pituitary cells; test: In vitro stimulation of ACTH and β-endorphin secretion by cultured rat pituitary cells; format: cell-based
Method: (§1) In vivo testing is carried out using the general procedure set forth in C.

human CRFR2 = biological target: T2, human CRFR2 (Homo sapiens, UniProt Q13324); test: Competitive binding assay, CHO cells stably expressing human CRFR2, displacement of [125I-Tyr0]Ucn
T2 construct: expressed in transfected cells
T2 sequence (Q13324 1-411): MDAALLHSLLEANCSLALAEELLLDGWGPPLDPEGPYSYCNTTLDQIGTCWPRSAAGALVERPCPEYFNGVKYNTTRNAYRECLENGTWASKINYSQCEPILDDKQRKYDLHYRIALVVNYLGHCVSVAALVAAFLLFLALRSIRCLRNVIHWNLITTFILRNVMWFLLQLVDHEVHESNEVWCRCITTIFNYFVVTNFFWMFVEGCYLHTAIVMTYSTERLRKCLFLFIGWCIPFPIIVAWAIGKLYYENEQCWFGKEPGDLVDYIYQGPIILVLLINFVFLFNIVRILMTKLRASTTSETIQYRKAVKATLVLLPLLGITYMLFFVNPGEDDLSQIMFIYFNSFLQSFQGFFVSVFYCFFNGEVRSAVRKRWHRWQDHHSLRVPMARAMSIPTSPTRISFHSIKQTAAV
Method: The affinities of test peptides for CRFR1 and CRFR2 stably expressed in CHO cells were determined by competitive displacement of ^125I-(Nle^21, Tyr^32) ovine CRF (for CRFR1) or of [^125I-Tyr^o-]Ucn (for CRFR2) as described.

[2] = In vivo lowering of blood pressure on peripheral administration; settings: administered peripherally
Method: as §1

Chain of CRFR2 (Q60748 27-431 isoform Q60748-2 limits assumed): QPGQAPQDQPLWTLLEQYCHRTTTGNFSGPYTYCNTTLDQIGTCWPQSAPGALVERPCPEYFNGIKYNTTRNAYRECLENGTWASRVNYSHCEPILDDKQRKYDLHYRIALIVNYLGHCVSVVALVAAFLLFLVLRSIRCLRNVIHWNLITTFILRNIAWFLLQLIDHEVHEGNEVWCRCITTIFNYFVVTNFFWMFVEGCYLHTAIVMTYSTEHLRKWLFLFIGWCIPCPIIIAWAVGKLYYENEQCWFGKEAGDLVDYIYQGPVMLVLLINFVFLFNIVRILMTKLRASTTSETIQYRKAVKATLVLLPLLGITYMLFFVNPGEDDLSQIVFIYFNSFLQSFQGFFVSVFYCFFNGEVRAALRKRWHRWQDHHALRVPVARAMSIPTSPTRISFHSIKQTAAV

Row | binding to CRFR1 (in words) (human CRFR1) | binding to CRFR2 (in words) (human CRFR2) | Substance | antagonism for CRFR2 compared with the previously best reported compound (CRFR2) | stimulation of the secretion of ACTH and β-END-LI [1] | lowering of blood pressure [2]
1 | – | – | [D-Phe^11, His^12]-sauvagine(11-40) | close to equal antagonism | – | –
2 | binds strongly | only very weakly | (cyclo 31-34)[Ac-Pro^4, D-Phe^12, Nle^21,38, CML^27, Glu^31, D-His^32, Lys^34]-r/hCRF(4-41) [Example 5 F] | – | stimulates | very significant lowering of blood pressure
3 | binds strongly | only very weakly | (cyclo 31-34)[Ac-Pro^4, D-Phe^12, Nle^18,21, Glu^31, Lys^34]-carp urotensin(4-41) [Example 3 F] | – | stimulates | very significant lowering of blood pressure
